Results: PMC9223397 (International Journal of Molecular Sciences, 2022)

Legend:
[1] = test system: NMJs of hindlimb muscle in SOD1^G93A mice; test: Neuromuscular junction innervation in SOD1G93A mice; assay type: in vivo, SOD1^G93A male mice; conditions: 0.25 mg/kg i.p.; 16 weeks of age
Description: (§1) The compounds were dissolved in 0.5% hydroxypropyl-methylcellulose (HPMC; H7509, Sigma-Aldrich) in distilled water and were administered by intraperitoneal (i.p.) route twice daily (bid) in a volume of 10 mL/kg. Administrations were given from 30 min after rhizotomy surgery until 42 days post-injury (dpi), the end of the study; in the SOD1^G93A study, treatments were given from 8 to 16 weeks of age (see Figure 6).
For neuromuscular junction (NMJ) labeling, 50 µm thick longitudinal sections of TA muscle were serially cut. Sections were blocked with 5% normal donkey serum and incubated with primary antibodies rabbit anti-synaptophysin (1:500; Ab32127, Abcam, Cambridge, UK) and chicken anti-neurofilament 200 (NF200, 1:1000; AB5539, Millipore, Burlington, MS, USA) 48 h at 4 °C. After washes, sections were incubated overnight with secondary antibody Alexa Fluor 594-donkey anti-rabbit and anti-chicken (1:200; A11042-A21207, Invitrogen, USA) and Alexa 488 conjugated α-bungarotoxin (1:500; B13422, Life Technologies, Carlsbad, CA USA). Confocal images were captured (LSM 700 Axio Observer, Carl Zeiss, Jena, Germany, 40xOil/z0.5), and the maximum projection images generated from 1.3 µm z projections. The proportion of innervated NMJs was calculated by classifying each endplate as occupied (when presynaptic terminals overlie the endplate) or vacant (no presynaptic label in contact with the endplate). At least 60 endplates were analyzed per muscle.

[2] = test system: microglia and astrocytes in ventral horn after rhizotomy; test: Glial reactivity after L4-L5 rhizotomy (Iba1, GFAP immunolabeling); assay type: in vivo, female mice (B6SJL); conditions: 0.25 mg/kg bid i.p., 42 dpi
Description: (§2) Surgeries were performed on three-month-old mice under anesthesia with ketamine-xylazine (100–10 mg/kg i.p.) as previously described. Briefly, the L4-L5 spinal roots were exposed by a small laminectomy on the right side. Afterwards, roots were cut at the exit from the intervertebral foramina, and the root stumps were separated. Mice were cared for until recovery in a warm environment. Analgesia was provided with buprenorphine (0.1 mg/kg) for the next 48 h post-surgery.
as §1
(§3) For glial cells immunofluorescence, other lumbar spinal cord sections were blocked with 10% normal donkey serum and incubated overnight with primary antibodies rabbit anti-Iba1 (1:500; 019–19741, Wako) and rat anti-GFAP (1:500; 13-0300, Invitrogen) to label microglia and astroglia, respectively. After several washes, sections were incubated with secondary antibodies Alexa Fluor 488-donkey anti-rat (1:500; A-21208, Invitrogen) or Alexa Fluor 594 donkey anti-rabbit (1:500; A21207, Invitrogen). Finally, sides were mounted with Fluoromount-G. To quantify glial cell reactivity, images of the ventral horn were acquired with an epifluorescence microscope (Nikon Eclipse Ni, Japan) using the same conditions for each analyzed marker. After defining a threshold for background correction, the integrated density of GFAP or Iba1 labeling was measured using ImageJ software.

SOD1^G93A mice = test: Rotarod test in SOD1G93A mice; assay type: in vivo, SOD1^G93A male mice; conditions: 0.25 mg/kg i.p.; at 15 and 16 weeks
Description: as §1
A rotarod test was performed to evaluate motor coordination and strength. The time that each animal remained on the rotating rod at a speed of 14 rpm was measured for five trials per mouse, and the longest time until falling was recorded; 180 s was chosen as the cut-off time. The test was performed weekly from 8 to 16 weeks of age in SOD1^G93A and WT mice, and disease onset was determined as the first week when each mouse was unable to keep walking for 180 s on the rod.

[3] = biological target: T1, human Sigma-2 receptor (Sig-2R) (Homo sapiens, UniProt Q5BJF2); test: Human Sig-2R radioligand assay; assay type: binding; conditions: [3H]-DTG, transfected HEK-293 Sig-1R knockout membranes
T1 construct: expressed in transfected cells; host or cells: HEK-293 Sig-1R knockout (membranes)
T1 sequence (Q5BJF2 whole entry): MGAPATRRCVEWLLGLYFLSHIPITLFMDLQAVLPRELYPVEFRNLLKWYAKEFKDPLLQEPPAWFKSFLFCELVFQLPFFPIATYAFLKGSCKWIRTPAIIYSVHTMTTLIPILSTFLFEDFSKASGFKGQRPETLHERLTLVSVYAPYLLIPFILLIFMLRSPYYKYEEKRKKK
Description: The binding properties of the compounds to the human Sig-2R were similarly studied in transfected HEK-293 Sig-1R knockout membranes using [^3H]-1,3-di-o-tolylguanidine (DTG) (NET-986, PerkinElmer; Boston, USA) as the radioligand. The assay was carried out with 15 μg of membrane suspension, [^3H]-1,3-di-o-tolylguanidine (DTG) (10 nM, 100 μL), in either the absence or presence of either buffer or 10 μM haloperidol for total (TB) and nonspecific (NSB) binding, respectively, or the corresponding compound concentration. Binding buffer contained Tris-HCl (50 mM, pH 7.4). Plates were incubated at 25 °C for 120 min. After incubation, the reaction mix was transferred to MultiScreen HTS, FC plates (Merck Millipore) presoaked in 0.5% polyethyleneimine, and filtered. Following that, plates were washed with ice-cold Tris-HCl (10 mM, pH 8). Filters were dried and counted, and data were processed as above.

[4] = Plasma levels, spinal nerve injury (rhizotomy) model; assay type: in vivo, female mouse; conditions: plasma, ip; spinal nerve injury female mouse, 0.25 mg/kg i.p.; 30 min post-administration; data obtained in a separate study
Description: as §1
Plasma levels were determined in the two in vivo models evaluated to be able to associate the pharmacological activity with the levels present in plasma. […] In the SOD1^G93A model, the plasma levels were evaluated at 16 weeks of age (after 8 weeks of administration) and 15 min after compound administration (5 mg/kg i.p.). Plasma samples were assayed by ultraperformance liquid chromatography−triple quadrupole mass spectrometry (UPLC-MS/MS) after plasma protein precipitation. Results are expressed as mean ± standard deviation (n = 8).

[5] = Body weight in SOD1G93A mice; assay type: in vivo, SOD1^G93A male mice; conditions: 0.25 mg/kg i.p., 8 to 16 weeks of age
Description: as §1

Sig-1R/BiP interaction = test: BiP/Sig-1R association assay in CHO cells; assay type: cell-based; conditions: for Effect on Sig-1R/BiP association: 10 µM
Description: The interaction between Sig-1R and the chaperone BiP was used to identify the functional nature (agonistic or antagonistic) of compounds [38]. The assay was conducted by Amylgen according to their standard assay protocol (https://www.amylgen.fr/ (accessed on 15 May 2022)). Each assay condition consisted of six determinations. In brief, CHO cells were treated with compounds at 37 °C for 30 min and lysed. CHO cell lysates were immunoprecipitated with Sig-1R antibody, and coimmunoprecipitated BiP was detected by ELISA assay. In each experiment, untreated control cell lysates were used to assess the maximal level of Sig1R-BiP interaction and represented 100% of Sig1R-BiP association. Cells treated with compounds at the corresponding concentrations were equally processed, and the level of Sig1R-BiP association in those conditions was referred to as the control condition. In this experimental setting, Sig1R agonists were able to reduce the Sig1R-BiP interaction, while antagonists were not.

[6] = test system: microglia and astrocytes in ventral horn of SOD1^G93A mice; test: Glial reactivity in SOD1G93A mice (Iba1, GFAP); assay type: in vivo, SOD1^G93A male mice; conditions: 0.25 mg/kg i.p.; 16 weeks of age
Description: as §1, §3

[7] = test system: spinal α-MNs in SOD1^G93A mice; test: Spinal MN counts in SOD1G93A mice; assay type: in vivo, SOD1^G93A male mice; conditions: 0.25 mg/kg i.p.; 16 weeks of age
Description: as §1
(§4) At the end of follow-up (42 dpi for rhizotomy and 16 weeks of age for ALS mice; Figure 6), the animals were deeply anesthetized and transcardially perfused with 4% PFA in PBS. The lumbar spinal cord and the TA muscle were harvested and cryopreserved in 30% sucrose solution in PB. The spinal cords were serially cut in 20 µm thick transverse sections with a cryostat (Leica, Mannheim, Germany). For MN counting, L4-L5 spinal cord sections separated 100 µm were stained for 3 h with an acidified solution of 3.1 mM cresyl violet. MNs were identified by their localization in the lateral ventral horn of the spinal cord and were counted following strict size and morphological criteria: only MNs with a diameter larger than 20 µm, polygonal shape, and prominent nucleoli were counted.

[8] = Plasma levels, SOD1G93A model; assay type: in vivo, Transgenic SOD1^G93A male mouse; conditions: SOD1G93A transgenic, plasma, ip; SOD1G93A male mouse, 0.25 mg/kg i.p.; 30 min post-administration; data obtained in a separate study
Description: as §1
Plasma levels were determined in the two in vivo models evaluated to be able to associate the pharmacological activity with the levels present in plasma. In the rhizotomy model, the plasma levels were evaluated at Day 42 after surgery and at 15 min after compound administration (0.5 and 5 mg/kg i.p.). […] Plasma samples were assayed by ultraperformance liquid chromatography−triple quadrupole mass spectrometry (UPLC-MS/MS) after plasma protein precipitation. Results are expressed as mean ± standard deviation (n = 8).

[9] = test system: spinal MNs after L4-L5 rhizotomy; test: MN survival after L4-L5 rhizotomy (cresyl violet MN counts); assay type: in vivo, female mice (B6SJL); conditions: 0.25 mg/kg bid i.p., 42 dpi; positive control
Description: as §2, §1, §4

[10] = test system: NSC34 SOD1^G93A-induced cell death; design: method as in PMID 24334165; conditions: more significant effect at 10 μM; cited from earlier work

Compound | Proportion of innervated endplates (NMJ) vs untreated [1] | GFAP integrated density ± SEM (astroglial reactivity) [2] | Iba1 integrated density ± SEM (microglial reactivity) [2] | Rotarod performance vs vehicle (SOD1^G93A mice) | IC50 [3] | concentration at 30 min [4] | Body weight vs vehicle group [5] | Effect on Sig-1R/BiP association (Sig-1R/BiP interaction) | Astrocyte activation (GFAP) [6] | Number of surviving spinal α-MNs [7] | concentration at 30 min [8] | Number of spinal MNs ± SEM, ipsilateral ventral horn [9] | NSC34 SOD1G93A-induced cell death [10] | Reversion of the effect of PRE-084 on Sig-1R/BiP association (Sig-1R/BiP interaction; compound 10 µM, PRE-084 10 µM)
O=C(OCCN1CCOCC1)C1(c2ccccc2)CCCCC1 [PRE-084, 2-(4-Morpholinethyl)1-Phenylcyclohexanecarboxylate, reference compound] | significantly increased the proportion of innervated endplates | 6 × 10^4 ± 0.9 × 10^4 | 15 × 10^4 ± 1.4 × 10^4 | significantly improved the functional outcome | > 10 µM | 3.6 ng/mL | did not cause differences in body weight | Agonist effect | significant decrease in astrocyte activation | 12.4 ± 0.9 MNs per section | 2.6 ng/mL | 8.9 ± 0.4 | – | –
COc1ccc(CCN2CCN(CCCc3ccccc3)CC2)cc1OC [SA4503] | – | – | – | – | – | – | – | – | – | – | – | – | reduced NSC34 SOD1^G93A-induced cell death in a concentration-dependent manner | –
CCCN(CCC)CCc1ccc(OC)c(OCCc2ccccc2)c1 [NE100, reference compound] | – | – | – | – | – | – | – | antagonist effect | – | – | – | – | – | able to revert the effect of PRE-084
